Reference: patent US20030148954A1, “Agents and methods for modulating activator protein-1-mediated cellular processes” (Wisconsin Alumni Research Foundation, priority 2001, published 2003)

Key:
[1] = test system: CMV enhancer; test: pCMVβgal β-galactosidase reporter, transient transfection of K562 cells; assay type: cell-based, human; conditions: K562, TPA treatment
Method: (§1) Transient Transfections—K562 cells (5×10^5) were collected by centrifugation at 240×g for 8 min at 4° C. and resuspended in 4 ml of complete IMEM. Plasmid DNAs (1 μg of reporter and 2 μg of effector) were added to 150 μl of IMEM, incubated with Superfect (4 μl/1 μg DNA; Qiagen) for 10 min at room temperature and then added to cells.
(§2) For each transfection, cells were incubated for 26 h after transfection and then treated with TPA (final concentration: 5 nM) or the vehicle (DMSO). […] Luciferase activity was normalized by the protein content of the lysates, determined by Bradford assay using γ-globulin as a standard.

[2] = test system: AP-1; test: AP-1 luciferase reporter, transient transfection of HeLa cells; assay type: cell-based, human
Excerpt: (§3) Plasmids—The pBabe-NIC-1 (pNIC-1) expression vector encoding constitutively active Notch-1 (NIC-1) was described previously (36,37,51). This vector was derived from the pBabe-puro retroviral vector and includes a cDNA sequence encoding amino acids 1759-2556 of human Notch-1 with a Myc tag fused to its carboxyl terminus. Human NIC-1 deletion mutants were generated by PCR using a full-length human Notch-1 expression vector as the template. The Notch-dependent reporter plasmid containing four CBF1 binding sites and an simian virus 40 promoter fused to luciferase (p4×CBF1luc) was described previously (52). The AP-1 reporter plasmid (p1×AP1luc) containing a collagenase promoter fragment (−73/+67) with a single AP-1 binding site in the luciferase reporter vector pGL2-basic (Promega) was described previously (53). The NF-κB reporter plasmid (p3×κBluc) containing three NF-κB binding sites and a minimal promoter fused to luciferase was a kind gift of Dr. Shigeki Miyamoto (University of Wisconsin Medical School). […]
as §2

[3] = test system: MMP1; test: Northern blotting of MMP1 transcripts in K562-Babe and K562-NIC-1 cells; assay type: cell-based, human; conditions: K562-Babe cells, 5 nM TPA 12 h
Method: (§4) Stable Transfection—K562 cells were stably transfected by electroporation with a Bio-Rad Gene pulser electroporator. Cells (5×10^6) were washed with ice-cold PBS, resuspended in 0.5 ml of ice-cold PBS, mixed with 5 μg linearized plasmid DNA, and subjected to electroporation (960 microfarad; 220 V) in a 0.4 cm-wide electroporation cuvette (BTX). pBabe and pNIC-1 were linearized with NotI. Cells were then added to 20 ml of complete IMEM, grown for 48 h, and diluted in complete IMEM containing 1.5 μg/ml puromycin (pools of K562-Babe and K562-NIC-1 cells). Stably transfected cells were analyzed for erythroid differentiation as soon as the pools were generated by benzidine staining to reduce the probability of phenotypic changes that may result from prolonged growth.
(§5) Northern Blotting—Total RNA from K562-Babe and K562-NIC-1 cells was extracted with Triazol (Life Technologies, Inc.). Ten μg of RNA per sample was electrophoresed on a 1% agarose, 6.6% formaldehyde gel and then transferred overnight to a Magnacharge nylon membrane (Osmonics). RNA was cross-linked to the membrane by UV irradiation. Membranes were prehybridized for 30 min at 60° C. in ExpressHyb hybridization solution (Clontech). […] Radioactivity was quantitated by PhosphorImager analysis with ImageQuant software (Molecular Dynamics).

[4] = test system: human Aγ globin promoter; test: pGL3γLuc reporter, transient transfection of K562 cells; assay type: cell-based; conditions: K562, TPA treatment
Method: as §1
(§6) For each transfection, cells were incubated for 26 h after transfection and then treated with TPA (final concentration: 5 nM) or the vehicle (DMSO). After incubating for another 12 or 16 h, cells were harvested and assayed for luciferase activity. Luciferase activity was normalized by the protein content of the lysates, determined by Bradford assay using γ-globulin as a standard.

[5] = test system: AP-1; test: AP-1 luciferase reporter, transient transfection of K562 cells; assay type: cell-based, human; conditions: K562, p1×AP1luc, no NIC-1
Excerpt: Plasmids—The pBabe-NIC-1 (pNIC-1) expression vector encoding constitutively active Notch-1 (NIC-1) was described previously (36,37,51). This vector was derived from the pBabe-puro retroviral vector and includes a cDNA sequence encoding amino acids 1759-2556 of human Notch-1 with a Myc tag fused to its carboxyl terminus. Human NIC-1 deletion mutants were generated by PCR using a full-length human Notch-1 expression vector as the template. The Notch-dependent reporter plasmid containing four CBF1 binding sites and an simian virus 40 promoter fused to luciferase (p4×CBF1luc) was described previously (52). The AP-1 reporter plasmid (p1×AP1luc) containing a collagenase promoter fragment (−73/+67) with a single AP-1 binding site in the luciferase reporter vector pGL2-basic (Promega) was described previously (53). The NF-κB reporter plasmid (p3×κBluc) containing three NF-κB binding sites and a minimal promoter fused to luciferase was a kind gift of Dr. Shigeki Miyamoto (University of Wisconsin Medical School). The pBabe-H-Ras(12V) expression vector encoding constitutively active H-Ras was a kind gift of Dr. Charming Der (University of North Carolina-Chapel Hill). This vector was derived from the pBabe-puro retroviral vector and includes a cDNA encoding H-Ras with a Gly to Val mutation at amino acid 12.
as §1, §6

[6] = test system: AP-1; test: EMSA of AP-1 DNA binding activity in nuclear extracts; parameters: species or system human; conditions: K562 cells treated with TPA
Method: K562-Babe and K562-NIC-1 cells were harvested by centrifugation for 10 min at 150×g. Cells were washed once with ice-cold PBS and resuspended in 1.5 volumes of nuclei lysis buffer (10 mM Tris-HCl, pH 7.5, 10 mM NaCl, 3 mM MgCl2, and 0.2% Nonidet P-40) on ice for 3 min. Nuclei were collected by centrifugation for 5 min at 600×g. Nuclei were washed by gentle resuspension in 1.5 volumes of nuclei wash buffer (10 mM Tris-HCl, pH 7.5, 10 mM NaCl, and 3 mM MgCl2) and then collected by centrifugation for 4 min at 600×g. […] Nuclei were extracted for 45 min at 4° C. with constant mixing. The suspension was then centrifuged for 30 min at 150,000×g. Aliquots of the supernatant were frozen on dry ice and stored at -80° C. The protein concentration as measured by the Bradford assay, with y-globulin as a standard ranged from 4 to 10 mg/ml. DTT (5 mM), phenylmethanesulfonyl fluoride (0.5 mM), leupeptin (20 μg/ml), β-glycerophosphate (800 μM), sodium vanadate (1 mM), and sodium molybdate (50 μM) were included in all buffers. Electrophoretic Mobility Shift Assay-EMSA assays were done as described previously (54). AP-1 DNA binding activity was measured by EMSA with a double-stranded end-labeled oligonucleotide [NT] containing a high affinity AP-1 binding site. […] DNA binding activity was quantitated by PhosphorImager analysis with ImageQuant software (Molecular Dynamics).

[7] = test system: NF-κB; test: NF-κB luciferase reporter (p3×κBluc), transient transfection of K562 cells; assay type: cell-based, human
Excerpt: as §3, §2

[8] = test system: IL-8; test: Northern blotting of IL-8 transcripts in K562-Babe and K562-NIC-1 cells; assay type: cell-based, human; conditions: K562-Babe cells, 5 nM TPA 12 h
Method: as §4, §5

SMILES: CCCCCCCCCCCCCC(=O)O[C@@H]1[C@@H](C)[C@@]2(O)[C@@H](C=C(CO)C[C@]3(O)C(=O)C(C)=C[C@@H]23)[C@@H]2C(C)(C)[C@]12OC(C)=O [TPA, reference compound]
- increase of pCMVβgal activity [1]: strongly increased
- induction of AP-1 reporter activity by the activator [2]: strongly induced
- induction of MMP1 transcript levels [3]: strongly induced
- increase of pGL3γLuc activity [4]: ~3 fold
- induction of AP-1 reporter activity by the activator [5]: strongly induced
- induction of AP-1 DNA binding activity [6]: strongly induced
- activation of NF-κB reporter gene by the activator [7]: strongly activated
- induction of IL-8 transcript levels [8]: strongly induced
